Measured values from US8366962B2, “Polymerizable liquid crystal compounds having oxiranyl group, polymerizable liquid crystal compositions and polymers” (JNC Corporation, priority 2009, dated 2013).

Assay: Solubility in PGMEA/MMP: deposition of crystals when the solution is allowed to stand at room temperature
Type: physicochemical
Conditions: 70/30 by weight mixture with compound (M1-19-1), 30% by weight solution in PGMEA/MMP=9/1 by volume
Text: Incidentally, PGMEA and MMP stand for propylene glycol […] ether acetate and methyl 3-methoxypropionate, respectively.

Cc1cc(OC(=O)c2ccc(OCCCCOCC3(C)CO3)cc2)ccc1OC(=O)c1ccc(OCCCCOCC2(C)CO2)cc1 (stereo not shown) [Compound (1-1-14)]
time allowed to stand without deposition of crystals: more than 3 days
